{"source": "patent US20040266002A1", "about": "“Use of abscisic acid in somatic embryogenesis of pine trees” (Weyerhaeuser Company, priority 2003, published 2004)", "test_system": "Loblolly pine (Pinus taeda) pre-cotyledonary somatic embryos", "test": "Abscisic acid pulse during development of Loblolly pine somatic embryos", "assay_type": "cell-based", "protocol": "Development: Pre-cotyledonary somatic embryos were transferred from maintenance medium into solid development medium BM3 containing 25 mg/L abscisic acid for four weeks to yield treated pre-cotyledonary somatic embryos. The development medium either lacks growth hormones entirely, or has them present only at very low levels. The further inclusion of an adsorbent composition in this medium is advantageous. The adsorbent composition is normally present at a concentration of about 0.1-5 g/L, more generally about 0.25-2.5 g/L. Gelrite was included at a concentration of about 0.25%.\nAfter culturing pre-cotyledonary embryos on solid development medium containing 25 mg/L abscisic acid for 4 weeks, the abscisic acid-treated pre-cotyledonary embryos were transferred on a filter paper support to solid development medium without abscisic acid. The solid development medium without abscisic acid had the same composition as development medium BM3. Development is preferably carried out in complete darkness at a temperature of 22°-25 C until elongated cotyledonary embryos have developed. Development time is typically several weeks, such as 10 to 12 weeks.\nFemale gametophytes containing zygotic embryos were removed from seeds of genotypes A, B and C, as described in EXAMPLE 1, above. The induction and maintenance stages were as described in EXAMPLE 1.\nTo test the effect of a pulse of abscisic acid, pre-cotyledonary embryos were transferred to a filter paper support placed on solid development medium BM3 containing abscisic acid. Six different treatments were tested. The concentration of abscisic acid, and the time period during which the pre-cotyledonary embryos were exposed to the abscisic acid during each treatment, are shown in Table 3.\nAs a control, pre-cotyledonary embryos were maintained in development medium BM3 containing 25 mg/L abscisic acid for twelve weeks. After twelve weeks, both control and experimental embryos were taken through the standard post-development treatments as described in EXAMPLE 1. Germination was assessed after twelve weeks on germination media in the light at room temperature.", "note": "Marks after values point to notes of the source that are not given here.", "data": [{"molecule": "CC1=CC(=O)CC(C)(C)[C@@]1(O)/C=C/C(C)=C\\C(=O)O", "note": "[Abscisic Acid, abscisic acid]", "values": [{"measurement": "Mean Dry Weight", "setting": "All genotypes combined, Control: 25 mg/L abscisic acid weeks 1-12", "result": 0.37, "unit": "mg/emb"}, {"measurement": "Mean Dry Weight", "setting": "All genotypes combined, Treatment 1: 25 mg/L weeks 1-3, 0 weeks 4-12", "result": "0.49* mg/emb"}, {"measurement": "Mean Dry Weight", "setting": "All genotypes combined, Treatment 2: 25 mg/L weeks 1-5, 0 weeks 6-12", "result": "0.47* mg/emb"}, {"measurement": "Mean Dry Weight", "setting": "All genotypes combined, Treatment 3: 25 mg/L weeks 1-7, 0 weeks 8-12", "result": "0.47* mg/emb"}, {"measurement": "Mean Dry Weight", "setting": "All genotypes combined, Treatment 4: 25 mg/L weeks 1-9, 0 weeks 10-12", "result": "0.48* mg/emb"}, {"measurement": "Mean Dry Weight", "setting": "All genotypes combined, Treatment 5: 25 mg/L weeks 1-3, 15 weeks 4-5, 10 weeks 6-7, 5 weeks 8-9, 0 weeks 10-12", "result": "0.50* mg/emb"}, {"measurement": "Mean Dry Weight", "setting": "All genotypes combined, Treatment 6: 25 mg/L weeks 1-5, 15 weeks 6-7, 10 weeks 8-9, 0 weeks 10-12", "result": "0.48* mg/emb"}, {"measurement": "Embryo morphology at the end of development", "setting": "both control (continuous abscisic acid) and experimental (pulse) embryos", "result": "good morphological form, good cotyledon development, and normal color"}, {"measurement": "Mean Dry Weight", "setting": "genotype A, Control: 25 mg/L abscisic acid weeks 1-12", "result": 0.27, "unit": "mg/emb"}, {"measurement": "Mean Dry Weight", "setting": "genotype A, Treatment 1: 25 mg/L weeks 1-3, 0 weeks 4-12", "result": "0.38* mg/emb"}, {"measurement": "Mean Dry Weight", "setting": "genotype A, Treatment 2: 25 mg/L weeks 1-5, 0 weeks 6-12", "result": "0.36* mg/emb"}, {"measurement": "Mean Dry Weight", "setting": "genotype A, Treatment 3: 25 mg/L weeks 1-7, 0 weeks 8-12", "result": 0.34, "unit": "mg/emb"}, {"measurement": "Mean Dry Weight", "setting": "genotype A, Treatment 4: 25 mg/L weeks 1-9, 0 weeks 10-12", "result": 0.32, "unit": "mg/emb"}, {"measurement": "Mean Dry Weight", "setting": "genotype A, Treatment 5: 25 mg/L weeks 1-3, 15 weeks 4-5, 10 weeks 6-7, 5 weeks 8-9, 0 weeks 10-12", "result": "0.36* mg/emb"}, {"measurement": "Mean Dry Weight", "setting": "genotype A, Treatment 6: 25 mg/L weeks 1-5, 15 weeks 6-7, 10 weeks 8-9, 0 weeks 10-12", "result": 0.33, "unit": "mg/emb"}, {"measurement": "Mean Dry Weight", "setting": "genotype B, Control: 25 mg/L abscisic acid weeks 1-12", "result": 0.31, "unit": "mg/emb"}, {"measurement": "Mean Dry Weight", "setting": "genotype B, Treatment 1: 25 mg/L weeks 1-3, 0 weeks 4-12", "result": 0.32, "unit": "mg/emb"}, {"measurement": "Mean Dry Weight", "setting": "genotype B, Treatment 2: 25 mg/L weeks 1-5, 0 weeks 6-12", "result": 0.31, "unit": "mg/emb"}, {"measurement": "Mean Dry Weight", "setting": "genotype B, Treatment 3: 25 mg/L weeks 1-7, 0 weeks 8-12", "result": 0.37, "unit": "mg/emb"}, {"measurement": "Mean Dry Weight", "setting": "genotype B, Treatment 4: 25 mg/L weeks 1-9, 0 weeks 10-12", "result": 0.37, "unit": "mg/emb"}, {"measurement": "Mean Dry Weight", "setting": "genotype B, Treatment 5: 25 mg/L weeks 1-3, 15 weeks 4-5, 10 weeks 6-7, 5 weeks 8-9, 0 weeks 10-12", "result": 0.36, "unit": "mg/emb"}, {"measurement": "Mean Dry Weight", "setting": "genotype B, Treatment 6: 25 mg/L weeks 1-5, 15 weeks 6-7, 10 weeks 8-9, 0 weeks 10-12", "result": 0.36, "unit": "mg/emb"}, {"measurement": "Mean Dry Weight", "setting": "genotype C, Control: 25 mg/L abscisic acid weeks 1-12", "result": 0.55, "unit": "mg/emb"}, {"measurement": "Mean Dry Weight", "setting": "genotype C, Treatment 1: 25 mg/L weeks 1-3, 0 weeks 4-12", "result": "0.79* mg/emb"}, {"measurement": "Mean Dry Weight", "setting": "genotype C, Treatment 2: 25 mg/L weeks 1-5, 0 weeks 6-12", "result": "0.80* mg/emb"}, {"measurement": "Mean Dry Weight", "setting": "genotype C, Treatment 3: 25 mg/L weeks 1-7, 0 weeks 8-12", "result": 0.69, "unit": "mg/emb"}, {"measurement": "Mean Dry Weight", "setting": "genotype C, Treatment 4: 25 mg/L weeks 1-9, 0 weeks 10-12", "result": "0.76* mg/emb"}, {"measurement": "Mean Dry Weight", "setting": "genotype C, Treatment 5: 25 mg/L weeks 1-3, 15 weeks 4-5, 10 weeks 6-7, 5 weeks 8-9, 0 weeks 10-12", "result": "0.90* mg/emb"}, {"measurement": "Mean Dry Weight", "setting": "genotype C, Treatment 6: 25 mg/L weeks 1-5, 15 weeks 6-7, 10 weeks 8-9, 0 weeks 10-12", "result": "0.84* mg/emb"}, {"measurement": "Dry weight of embryos receiving the abscisic acid pulse versus control embryos", "setting": "pulse treatments versus control with 25 mg/L abscisic acid for twelve weeks", "result": "higher dry weight than the control embryos"}]}]}
